From patent US20240368121A1, “ESTROGEN RECEPTOR DEGRADERS, PHARMACEUTICAL COMPOSITIONS THEREOF, AND THEIR THERAPEUTIC APPLICATIONS” (BioTheryX, Inc., priority 2021, published 2024)

Assays:
Assay type in all cases: cell-based
T47D cells = assay: Cell viability assay ([…]-GLO, 6-day treatment); details: Homo sapiens, 144 h, 6 days, CTG, read-out: Inhibition of Cancerous Cells IC50 T47D
Method in brief: (§1)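 MCF7 (MEM) and T47D (RPMI with insulin), both with 10% FBS, at 1,000 cells/well, treated with a 10-point compound dose series for 6 days, with medium and compound refreshed once. Viability read by CellTiter-Glo luminescence.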

MCF7 cells = assay: Cell viability assay ([…]-GLO, 6-day treatment); details: Homo sapiens, MCF7, 144 h; MCF-7 cells, 6 days, CTG; read-out: Inhibition of Cancerous Cells IC50 MCF-7
Method in brief: as §1

ERα = target: T1, ERα (Homo sapiens, UniProt P03372); assay: Protein degradation assay: ERα in MCF-7 cells via western blot; details: 6 h; for ERα Protein Degradation 1 nM: 1 nM compound; for ERα Protein Degradation 10 nM: 10 nM compound; for ERα Protein Degradation 100 nM: 100 nM compound
T1 construct: degrading an ERα in MCF-7 cells via a western blot; endogenous in cells; host or cells: MCF-7
T1 sequence (P03372 1-595): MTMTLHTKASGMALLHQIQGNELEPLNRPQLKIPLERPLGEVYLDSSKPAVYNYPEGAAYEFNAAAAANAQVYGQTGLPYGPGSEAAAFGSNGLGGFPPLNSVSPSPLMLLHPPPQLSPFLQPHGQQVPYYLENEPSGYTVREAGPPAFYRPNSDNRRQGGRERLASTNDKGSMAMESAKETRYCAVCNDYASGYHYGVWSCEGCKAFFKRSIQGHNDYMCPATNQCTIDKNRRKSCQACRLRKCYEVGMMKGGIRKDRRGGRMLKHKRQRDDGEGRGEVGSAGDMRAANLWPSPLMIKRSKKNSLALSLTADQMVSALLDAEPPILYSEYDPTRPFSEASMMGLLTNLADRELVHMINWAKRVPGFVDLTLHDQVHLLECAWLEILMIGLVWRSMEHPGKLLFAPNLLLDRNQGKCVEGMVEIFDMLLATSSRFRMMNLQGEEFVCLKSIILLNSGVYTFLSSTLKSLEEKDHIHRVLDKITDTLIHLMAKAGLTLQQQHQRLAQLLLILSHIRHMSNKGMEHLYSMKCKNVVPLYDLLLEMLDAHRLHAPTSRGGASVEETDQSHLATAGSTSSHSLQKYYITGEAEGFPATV
Method in brief: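 MCF-7 cells in MEM/10% FBS with insulin, seeded 300,000/well, treated 6 h at set concentrations (e.g., 1 nM–1 μM). Whole-cell lysates immunoblotted for ERα with GAPDH loading control, chemiluminescent detection; percentage degradation reported in binned categories (≥50%, 25–50%, 10–25%, <10%).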

IC50 (T47D cells)	IC50 (MCF7 cells)	SMILES	ERα Protein Degradation 1 nM (ERα)	ERα Protein Degradation 10 nM (ERα)	ERα Protein Degradation 100 nM (ERα)
0.61 nM	0.72 nM	O=C1CCC(N2Cc3c(cc(F)cc3C3CCN(CCCCCCOc4ccc([C@@H]5c6ccc(O)cc6CC[C@@H]5c5ccccc5)cc4)CC3)C2=O)C(=O)N1 (stereo partly drawn) [Compound A2, 3-(6-Fluoro-4-(1-(6-(4-((1R,2S)-6-hydroxy-2-phenyl-1,2,3,4-tetrahydro-naphthalen-1-yl)phenoxy)hexyl)piperidin-4-yl)-1-oxoisoindolin-2-yl)piperidine-2,6-dione]	D (a percentage degradation value of less than 10%)	D (a percentage degradation value of less than 10%)	D (a percentage degradation value of less than 10%)
0.64 nM	1.1 nM	Cc1c(-c2ccc(O)cc2)n(Cc2ccc(OCCCCN3CCN(C(=O)COc4cccc5c(C6CCC(=O)NC6=O)nn(C)c45)CC3)cc2)c2ccc(O)cc12 (stereo not drawn) [Compound E7, 3-(7-(2-(4-(4-(4-((5-Hydroxy-2-(4-hydroxyphenyl)-3-methyl-1H-indol-1-yl)-methyl)phenoxy)butyl)piperazin-1-yl)-2-oxoethoxy)-1-methyl-1H-indazol-3-yl)piperidine-2,6-dione]	B (a percentage degradation value of less than 50% and no less than 25%)	A (a percentage degradation value of no less than 50%)	A (a percentage degradation value of no less than 50%)
0.47 nM	4 nM	O=C1CCC(N2Cc3cc(C4CCN(CC5CCN(c6ccc([C@@H]7c8ccc(O)cc8CC[C@@H]7c7ccccc7)cc6)CC5)CC4)c(F)cc3C2=O)C(=O)N1 (stereo partly drawn) [Compound A6, 3-(6-fluoro-5-(1-((1-(4-((1R,2S)-6-hydroxy-2-phenyl-1,2,3,4-tetrahydro-naphthalen-1-yl)phenyl)piperidin-4-yl)methyl)piperidin-4-yl)-1-oxoisoindolin-2-yl)piperidine-2,6-dione]	B (a percentage degradation value of less than 50% and no less than 25%)	B (a percentage degradation value of less than 50% and no less than 25%)	D (a percentage degradation value of less than 10%)
0.93 nM	5.7 nM	CN(C(=O)CN1CCN(CC2CCN(c3ccc([C@@H]4c5ccc(O)cc5CC[C@@H]4c4ccccc4)cc3)CC2)CC1)c1cccc(NC2CCC(=O)NC2=O)c1 (stereo partly drawn) [Compound B20, N-(3-((2,6-Dioxopiperidin-3-yl)amino)phenyl)-2-(4-((1-(4-((1R,2S)-6-hydroxy-2-phenyl-1,2,3,4-tetrahydronaphthalen-1-yl)phenyl)piperidin-4-yl)methyl)piperazin-1-yl)-N-methylacetamide]	B (a percentage degradation value of less than 50% and no less than 25%)	C (a percentage degradation value of less than 25% and no less than 10%)	D (a percentage degradation value of less than 10%)
2.6 nM	5 nM	O=C1CCC(Nc2cccc(OCC(=O)N3CCN(CC4CCN(c5ccc([C@@H]6c7ccc(O)cc7CC[C@@H]6c6ccccc6)cc5)CC4)CC3)c2)C(=O)N1 (stereo partly drawn) [Compound B16, 3-((3-(2-(4-((1-(4-((1R,2S)-6-hydroxy-2-phenyl-1,2,3,4-tetrahydronaphthalen-1-yl)phenyl)piperidin-4-yl)methyl)piperazin-1-yl)-2-oxoethoxy)phenyl)amino)piperidine-2,6-dione]	C (a percentage degradation value of less than 25% and no less than 10%)	C (a percentage degradation value of less than 25% and no less than 10%)	C (a percentage degradation value of less than 25% and no less than 10%)
0.48 nM	1.2 nM	O=C1CCC(c2cccc(OCC(=O)N3CCN(CCCCOc4ccc([C@@H]5c6ccc(O)cc6CC[C@@H]5c5ccccc5)cc4)CC3)c2)C(=O)N1 (stereo partly drawn) [Compound B5, 3-(3-(2-(4-(4-(4-((1R,2S)-6-hydroxy-2-phenyl-1,2,3,4-tetrahydronaphthalen-1-yl)phenoxy)butyl)piperazin-1-yl)-2-oxoethoxy)phenyl)piperidine-2,6-dione]	D (a percentage degradation value of less than 10%)	D (a percentage degradation value of less than 10%)	D (a percentage degradation value of less than 10%)
0.22 nM	0.68 nM	O=C1CCC(N2Cc3cc(N4CCN(CC5CCN(c6ccc(C7c8ccc(O)cc8CC[C@@H]7c7ccccc7)cc6)CC5)CC4)ccc3C2=O)C(=O)N1 (stereo in doubt) [Compound A16, (S)-3-(5-(4-((1-(4-((1R,2S)-6-Hydroxy-2-phenyl-1,2,3,4-tetrahydronaphthalen-1-yl)phenyl)piperidin-4-yl)methyl)piperazin-1-yl)-1-oxoisoindolin-2-yl)piperidine-2,6-dione]	B (a percentage degradation value of less than 50% and no less than 25%)	A (a percentage degradation value of no less than 50%)	A (a percentage degradation value of no less than 50%)
44 nM	101 nM	CC1(Cc2ccc(OCCCCN3CCN(C(=O)COc4cccc(C5CCC(=O)NC5=O)c4)CC3)cc2)C(c2ccc(O)cc2)=Nc2ccc(O)cc21 (stereo not drawn) [Compound D7, 3-(3-(2-(4-(4-(4-((5-Hydroxy-2-(4-hydroxyphenyl)-3-methyl-3H-indol-3-yl)-methyl)phenoxy)butyl)piperazin-1-yl)-2-oxoethoxy)phenyl)piperidine-2,6-dione]	D (a percentage degradation value of less than 10%)	D (a percentage degradation value of less than 10%)	D (a percentage degradation value of less than 10%)
0.07 nM	2.2 nM	O=C1CCC(N2Cc3c(csc3C3CCN(CCCCOc4ccc([C@@H]5c6ccc(O)cc6CC[C@@H]5c5ccccc5)cc4)CC3)C2=O)C(=O)N1 (stereo partly drawn) [Compound A19, 3-(1-(1-(4-(4-((1R,2S)-6-Hydroxy-2-phenyl-1,2,3,4-tetrahydronaphthalen-1-yl)-phenoxy)butyl)piperidin-4-yl)-4-oxo-4H-thieno[3,4-c]pyrrol-5(6H)-yl)piperidine-2,6-dione]	D (a percentage degradation value of less than 10%)	D (a percentage degradation value of less than 10%)	D (a percentage degradation value of less than 10%)
0.02 nM	0.09 nM	Cc1c(-c2ccc(O)cc2)n(Cc2ccc(OCCCCNCc3ccc(OCc4scc5c4CN(C4CCC(=O)NC4=O)C5=O)cc3)cc2)c2ccc(O)cc12 (stereo not drawn) [Compound E5, 3-(1-((4-(((4-(4-((5-hydroxy-2-(4-hydroxyphenyl)-3-methyl-1H-indol-1-yl)-methyl)phenoxy)butyl)amino)methyl)phenoxy)methyl)-4-oxo-4H-thieno[3,4-c]pyrrol-5(6H)-yl)-piperidine-2,6-dione]	D (a percentage degradation value of less than 10%)	D (a percentage degradation value of less than 10%)	D (a percentage degradation value of less than 10%)
0.86 nM	1.1 nM	O=C1CCC(N2Cc3cc(N4CCN(CC5CCN(c6ccc([C@@H]7c8ccc(O)cc8CC[C@@H]7c7ccccc7)cc6)CC5)CC4)ccc3C2=O)C(=O)N1 (stereo partly drawn) [Compound A14, 3-(5-(4-((1-(4-((1R,2S)-6-Hydroxy-2-phenyl-1,2,3,4-tetrahydronaphthalen-1-yl)-phenyl)piperidin-4-yl)methyl)piperazin-1-yl)-1-oxoisoindolin-2-yl)piperidine-2,6-dione]	A (a percentage degradation value of no less than 50%)	A (a percentage degradation value of no less than 50%)	A (a percentage degradation value of no less than 50%)
3.2 nM	5.6 nM	Cc1c(-c2ccc(O)cc2)n(Cc2ccc(OCCCCN3CCN(C(=O)COc4ccc(N5CCC(=O)NC5=O)cc4)CC3)cc2)c2ccc(O)cc12 [Compound E27, 1-(4-(2-(4-(4-(4-((5-hydroxy-2-(4-hydroxyphenyl)-3-methyl-1H-indol-1-yl)-methyl)phenoxy)butyl)piperazin-1-yl)-2-oxoethoxy)phenyl)dihydropyrimidine-2,4(1H,3H)-dione]	D (a percentage degradation value of less than 10%)	D (a percentage degradation value of less than 10%)	D (a percentage degradation value of less than 10%)
